According to article PMC6677754, “In silico design and optimization of selective membranolytic anticancer peptides” (Scientific Reports, 2019):
Peptide text beside a SMILES is read from it.

Columns and labels:
Assay in all cases: NCI-60 screening
Type in all cases: cell-based, human
HOP-62 = HOP-62 (Lung); log GI50; 48 h, sulforhodamine B, 10^-4 to 10^-8 M
Procedure: (§1) NCI-60 screening procedure
(§2) The NCI-60 screening procedure was performed by the Developmental Therapeutics Program of the National Cancer Institute. The procedure was performed as previously described24 in 96-well microtiter plates. Each peptide was tested in a 5-concentration assay, starting at 10^-4 M and diluting 10-fold to the lowest 10^-8 M concentration. The peptides were incubated for 48 h and the cell concentration was assayed by using the sulforhodamine B assay25 and optical density measurements. The growth inhibition (GI50) value24, measures the growth inhibitory power of the drug agent. The GI50 value is the concentration of the test drug for which the condition in Eq. S1 is met, where T is the optical density of the test well after a 48-h exposure to the peptide, T0 the optical density before applying the peptide drug and C the control optical density of a well where no peptide was applied.

RXF-393 = RXF-393 (Renal); log GI50; 48 h, sulforhodamine B, 10^-4 to 10^-8 M
Procedure: as §1, §2

OVCAR-8 = OVCAR-8 (Ovarian); log GI50; 48 h, sulforhodamine B, 10^-4 to 10^-8 M
Procedure: as §1, §2

HS-578T = HS-578T (Breast); log GI50; 48 h, sulforhodamine B, 10^-4 to 10^-8 M
Procedure: as §1, §2

DU-145 = DU-145 (Prostate); log GI50; 48 h, sulforhodamine B, 10^-4 to 10^-8 M
Procedure: as §1, §2

A549/ATCC = A549/ATCC (Lung); log GI50; 48 h, sulforhodamine B, 10^-4 to 10^-8 M
Procedure: as §1, §2

EKVX = EKVX (Lung); log GI50; 48 h, sulforhodamine B, 10^-4 to 10^-8 M
Procedure: as §1, §2

786-0 = 786-0 (Renal); log GI50; 48 h, sulforhodamine B, 10^-4 to 10^-8 M
Procedure: as §1, §2

NCI/ADR-RES = NCI/ADR-RES (Ovarian); log GI50; 48 h, sulforhodamine B, 10^-4 to 10^-8 M
Procedure: as §1, §2

HCT-15 = HCT-15 (Colon); log GI50; 48 h, sulforhodamine B, 10^-4 to 10^-8 M
Procedure: as §1, §2

OVCAR-3 = OVCAR-3 (Ovarian); log GI50; 48 h, sulforhodamine B, 10^-4 to 10^-8 M
Procedure: as §1, §2

MCF7 = MCF7 (Breast); log GI50; 48 h, sulforhodamine B, 10^-4 to 10^-8 M
Procedure: as §1, §2

MOLT-4 = MOLT-4 (Leukemia); log GI50; 48 h, sulforhodamine B, 10^-4 to 10^-8 M
Procedure: as §1, §2

KM12 = KM12 (Colon); log GI50; 48 h, sulforhodamine B, 10^-4 to 10^-8 M
Procedure: as §1, §2

ACHN = ACHN (Renal); log GI50; 48 h, sulforhodamine B, 10^-4 to 10^-8 M
Procedure: as §1, §2

NCI-H322M = NCI-H322M (Lung); log GI50; 48 h, sulforhodamine B, 10^-4 to 10^-8 M
Procedure: as §1, §2

HT29 = HT29 (Colon); log GI50; 48 h, sulforhodamine B, 10^-4 to 10^-8 M
Procedure: as §1, §2

CAKI-1 = CAKI-1 (Renal); log GI50; 48 h, sulforhodamine B, 10^-4 to 10^-8 M
Procedure: as §1, §2

MDA-MB-468 = MDA-MB-468 (Breast); log GI50; 48 h, sulforhodamine B, 10^-4 to 10^-8 M
Procedure: as §1, §2

OVCAR-5 = OVCAR-5 (Ovarian); log GI50; 48 h, sulforhodamine B, 10^-4 to 10^-8 M
Procedure: as §1, §2

SR = SR (Leukemia); log GI50; 48 h, sulforhodamine B, 10^-4 to 10^-8 M
Procedure: as §1, §2

TK-10 = TK-10 (Renal); log GI50; 48 h, sulforhodamine B, 10^-4 to 10^-8 M
Procedure: as §1, §2

SF-295 = SF-295 (CNS); log GI50; 48 h, sulforhodamine B, 10^-4 to 10^-8 M
Procedure: as §1, §2

RPMI-8226 = RPMI-8226 (Leukemia); log GI50; 48 h, sulforhodamine B, 10^-4 to 10^-8 M
Procedure: as §1, §2

UACC-257 = UACC-257 (Melanoma); log GI50; 48 h, sulforhodamine B, 10^-4 to 10^-8 M
Procedure: as §1, §2

SF-268 = SF-268 (CNS); log GI50; 48 h, sulforhodamine B, 10^-4 to 10^-8 M
Procedure: as §1, §2

SMILES | Log GI (M) (HOP-62) | Log GI (M) (RXF-393) | Log GI (M) (OVCAR-8) | Log GI (M) (HS-578T) | Log GI (M) (DU-145) | Log GI (M) (A549/ATCC) | Log GI (M) (EKVX) | Log GI (M) (786-0) | Log GI (M) (NCI/ADR-RES) | Log GI (M) (HCT-15) | Log GI (M) (OVCAR-3) | Log GI (M) (MCF7) | Log GI (M) (MOLT-4) | Log GI (M) (KM12) | Log GI (M) (ACHN) | Log GI (M) (NCI-H322M) | Log GI (M) (HT29) | Log GI (M) (CAKI-1) | Log GI (M) (MDA-MB-468) | Log GI (M) (OVCAR-5) | also measured
CC[C@H](C)[C@H](NC(=O)[C@H](CCCCN)NC(=O)[C@H](CCCCN)NC(=O)[C@@H](NC(=O)[C@@H](NC(=O)[C@@H](N)Cc1c[nH]cn1)[C@@H](C)CC)[C@@H](C)CC)C(=O)N[C@@H](CCCNC(=N)N)C(=O)N[C@H](C(=O)N[C@@H](Cc1c[nH]c2ccccc12)C(=O)N[C@@H](Cc1ccc(O)cc1)C(=O)N[C@@H](CCCNC(=N)N)C(=O)N[C@@H](CCCCN)C(=O)N[C@@H](C)C(=O)N[C@@H](Cc1c[nH]c2ccccc12)C(=O)N[C@@H](Cc1c[nH]cn1)C(=O)N[C@H](C(=O)N[C@@H](CC(C)C)C(=O)NCC(=O)N[C@@H](CCCCN)C(=O)N[C@H](C(N)=O)C(C)C)C(C)C)[C@@H](C)O [Off2] (H-HIIKKIRTWYRKAWHVLGKV-NH2) | -5.34 | -5.37 | -5.32 | -5.45 | -5.37 | -5.26 | -5.63 | -5.47 | -5.23 | -5.37 | -4.98 | -5.69 | -4.85 | -5.60 | -4.88 | -5.30 | -4.83 | -5.48 | -5.19 | -5.21 | Log GI (M) (SR): -5.15 M; Log GI (M) (TK-10): -5.49 M; Log GI (M) (SF-295): -5.32 M; Log GI (M) (RPMI-8226): -5.06 M; Log GI (M) (UACC-257): -5.07 M; Log GI (M) (SF-268): -5.46 M
CC[C@H](C)[C@H](NC(=O)[C@H](CCCNC(=N)N)NC(=O)[C@H](Cc1c[nH]c2ccccc12)NC(=O)[C@@H](NC(=O)[C@H](CCCCN)NC(=O)[C@H](CCCCN)NC(=O)[C@@H](NC(=O)[C@@H](NC(=O)[C@@H](NC(=O)[C@H](CCCCN)NC(=O)[C@H](Cc1ccccc1)NC(=O)[C@H](CCCCN)NC(=O)[C@H](CCCCN)NC(=O)[C@H](Cc1ccccc1)NC(=O)[C@@H](NC(=O)[C@@H](N)CCCCN)[C@@H](C)CC)[C@@H](C)O)[C@@H](C)CC)[C@@H](C)CC)C(C)C)C(=O)N[C@@H](Cc1ccccc1)C(=O)NCC(=O)N[C@@H](CCCNC(=N)N)C(=O)N[C@@H](Cc1ccccc1)C(N)=O [AmphiArc2] (H-KIFKKFKTIIKKVWRIFGRF-NH2) | -5.62 | -5.68 | -5.48 | -5.65 | -5.77 | -5.60 | -5.73 | -5.53 | -5.53 | -5.58 | -5.67 | -5.52 | -5.51 | -5.63 | -5.71 | -5.73 | -5.53 | -5.71 | -5.88 | -5.68 | Log GI (M) (SR): -5.57 M; Log GI (M) (TK-10): -5.65 M; Log GI (M) (SF-295): -5.69 M; Log GI (M) (RPMI-8226): -5.51 M; Log GI (M) (UACC-257): -5.54 M; Log GI (M) (SF-268): -5.68 M
